Laboratory results published in the supplement of paper PMC8633005.

Tests used:
Assay in all cases: drug sensitivity score (DSS) (DSS (unitless, 0-50 scale)); higher = more sensitive (stronger viability inhibition); extreme values may be limits of the assay
Conditions in all cases: 72 h; culture: 2D
FM-MEL-3 = system: FM-MEL-3
Procedure, shortened: (§1)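 Patient-derived melanoma cultures (1000–1500 cells per well) and melanoma cell lines were grown in 2D in 384-well plates holding a 527-compound oncology library. Each compound was dissolved in DMSO or water and tested at five concentrations spanning a 10,000-fold range. After 72 h at 37 °C, viability was read by CellTiter-Glo luminescence. A drug sensitivity score, a modified area-under-curve measure, was derived from dose-response curves fitted in the in-house Breeze software.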

FM-MEL-6 = system: FM-MEL-6
Procedure, shortened: as §1

FM-MEL-2 = system: FM-MEL-2
Procedure, shortened: as §1

SK-MEL-28 = system: SK-MEL-28
Procedure, shortened: as §1

SK-MEL-2 = system: SK-MEL-2
Procedure, shortened: as §1

Bowes = system: Bowes
Procedure, shortened: as §1

WM852 = system: WM852
Procedure, shortened: as §1

WM165 = system: WM165
Procedure, shortened: as §1

| Structure (SMILES) | drug sensitivity score (FM-MEL-3) | drug sensitivity score (FM-MEL-6) | drug sensitivity score (FM-MEL-2) | drug sensitivity score (SK-MEL-28) | drug sensitivity score (SK-MEL-2) | drug sensitivity score (Bowes) | drug sensitivity score (WM852) | drug sensitivity score (WM165) |
| --- | --- | --- | --- | --- | --- | --- | --- | --- |
| CC(C)[C@H]1C(=O)N[C@@H](CCCNC(=N)N)C(=O)NCC(=O)N[C@@H](CC(=O)O)C(=O)N[C@H](Cc2ccccc2)C(=O)N1C [Cilengitide] | 0 | 1 | 0.7 | 2 | 0 | 0 | 2.5 | 0 |
| N.N.[Cl][Pt][Cl] [Cisplatin] | 5.8 | 4.5 | 4.2 | 9.2 | 4.4 | 5.6 | 5.1 | 19.2 |
| Nc1nc(Cl)nc2c1ncn2[C@H]1C[C@H](O)[C@@H](CO)O1 [Cladribine] | 2.5 | 4.6 | 0 | 0.8 | 0 | 1.4 | 0.1 | 4.3 |
| Nc1nc(Cl)nc2c1ncn2[C@@H]1O[C@H](CO)[C@@H](O)[C@@H]1F [Clofarabine] | 11.8 | 9.6 | 2.4 | 10.8 | 7.6 | 10.9 | 8.6 | 16.6 |
| CCN(CC)CCOc1ccc(C(=C(Cl)c2ccccc2)c2ccccc2)cc1 [Clomifene] | 5.6 | 6.3 | 4.1 | 6.8 | 4.2 | 5.8 | 5.2 | 6.1 |
| COc1c(OCCCN2CCOCC2)ccc2c1N=C(NC(=O)c1cnc(N)nc1)N1CCN=C21 [Copanlisib] | 7.1 | 4.3 | 10.2 | 8.3 | 3.5 | 8.3 | 6.5 | 6.5 |
| CC1(COc2ccc3c(c2)ncn3-c2ccc3cccc(N4CCC(N)CC4)c3n2)COC1 [Crenolanib] | 1.5 | 5.4 | 5 | 6.8 | 5.4 | 4.6 | 6.6 | 7 |
| C[C@@H](Oc1cc(-c2cnn(C3CCNCC3)c2)cnc1N)c1c(Cl)ccc(F)c1Cl [Crizotinib] | 0 | 0 | 0 | 0 | 0 | 0 | 0 | 0 |
| Nc1ccn([C@@H]2O[C@H](CO)[C@@H](O)[C@@H]2O)c(=O)n1 [Cytarabine] | 9.3 | 7.2 | 1.9 | 12.1 | 2.4 | 0 | 0 | 15.7 |
| CC(C)(C)c1nc(-c2cccc(NS(=O)(=O)c3c(F)cccc3F)c2F)c(-c2ccnc(N)n2)s1 [Dabrafenib] | 2.7 | 0 | 1.5 | 20.5 | 0.9 | 1.1 | 1.1 | 18.1 |
| COc1cc2ncnc(Nc3ccc(F)c(Cl)c3)c2cc1NC(=O)/C=C/CN1CCCCC1 [Dacomitinib] | 1 | 0.4 | 0.4 | 0 | 0 | 4.1 | 0.3 | 0 |
| Cc1c2oc3c(C)ccc(C(=O)N[C@@H]4C(=O)N[C@H](C(C)C)C(=O)N5CCC[C@H]5C(=O)N(C)CC(=O)N(C)[C@@H](C(C)C)C(=O)O[C@@H]4C)c3nc-2c(C(=O)N[C@@H]2C(=O)N[C@H](C(C)C)C(=O)N3CCC[C@H]3C(=O)N(C)CC(=O)N(C)[C@@H](C(C)C)C(=O)O[C@@H]2C)c(N)c1=O [Dactinomycin] | 23.5 | 25.9 | 16.9 | 22.2 | 30.1 | 24.4 | 24.2 | 37.9 |
| CO[C@@H](C(=O)N1Cc2[nH]nc(NC(=O)c3ccc(N4CCN(C)CC4)cc3)c2C1)c1ccccc1 [Danusertib] | 1.5 | 2.9 | 0 | 5.1 | 1 | 10.4 | 3.2 | 14.5 |
| O=C(/C=C/c1cccnc1)NCCCCC1CCN(C(=O)c2ccccc2)CC1 [Daporinad] | 14.5 | 10.3 | 16.6 | 16.8 | 11.3 | 32.7 | 27.1 | 17.5 |
| CCN(CC)CCN(Cc1ccc(-c2ccc(C(F)(F)F)cc2)cc1)C(=O)Cn1c(SCc2ccc(F)cc2)nc(=O)c2c1CCC2 [Darapladib] | 0 | 0.4 | 0.8 | 0.4 | 0.2 | 0 | 0 | 0 |
| Cc1nc(Nc2ncc(C(=O)Nc3c(C)cccc3Cl)s2)cc(N2CCN(CCO)CC2)n1 [Dasatinib] | 0 | 0 | 0 | 3.4 | 0 | 1.9 | 0.1 | 5.3 |
| COc1cccc2c1C(=O)c1c(O)c3c(c(O)c1C2=O)C[C@@](O)(C(C)=O)C[C@@H]3O[C@H]1C[C@H](N)[C@H](O)[C@H](C)O1 [Daunorubicin] | 8.3 | 7.4 | 6.8 | 7.2 | 4.7 | 4.5 | 4.6 | 13.4 |
| CC[C@@](C)(Nc1ccnc(-c2c[nH]c3ncccc23)n1)C(=O)NCC(F)(F)F [Decernotinib] | 0 | 0 | 0.2 | 0.3 | 0 | 0 | 0 | 0 |
| Nc1ncn([C@H]2C[C@H](O)[C@@H](CO)O2)c(=O)n1 [Decitabine] | 0 | 3.4 | 0 | 0 | 0 | 0 | 0 | 0.7 |
